Measurements published in ChEMBL document CHEMBL3045410, “Synthesis and in vitro antitumor activity of 1-(3-dimethylamino)propyl indolin-2-one derivatives” (Med Chem Res, 2013).

How the values were obtained:
A549 [1] = test: Cytotoxicity against Homo sapiens (human) A549 cells assessed as growth inhibition by MTT assay; type: functional, cell-based
K562 [2] = test: Cytotoxicity against Homo sapiens (human) K562 cells assessed as growth inhibition by MTT assay; type: functional, cell-based
HUVEC [3] = test: Cytotoxicity against HUVECs assessed as growth inhibition by MTT assay; type: cell-based; details: Homo sapiens
HL-60 [4] = test: Cytotoxicity against Homo sapiens (human) HL60 cells assessed as growth inhibition by MTT assay; type: functional, cell-based
HUVEC [5] = test: Cytotoxicity against recombinant Homo sapiens (human) basic FGF-stimulated HUVECs assessed as growth inhibition by MTT assay; type: functional, cell-based
MDA-MB-231 [6] = test: Cytotoxicity against Homo sapiens (human) MDA-MB-231 cells assessed as growth inhibition by MTT assay; type: functional, cell-based
HUVEC [7] = test: Cytotoxicity against VEGF-stimulated HUVECs assessed as growth inhibition by MTT assay; type: functional, cell-based; details: Homo sapiens
IM-9 = test: Cytotoxicity against Homo sapiens (human) IM9 cells assessed as growth inhibition by MTT assay; type: functional, cell-based
K562 [8] = test: Ratio of sunitinib IC50 to compound IC50 for Homo sapiens (human) K562 cells; type: functional
A549 [9] = test: Ratio of LK-B030 IC50 to compound IC50 for Homo sapiens (human) A549 cells; type: functional
A549 [10] = test: Ratio of sunitinib IC50 to compound IC50 for Homo sapiens (human) A549 cells; type: functional
HL-60 [11] = test: Ratio of sunitinib IC50 to compound IC50 for Homo sapiens (human) HL60 cells; type: functional
MDA-MB-231 [12] = test: Ratio of LK-B030 IC50 to compound IC50 for Homo sapiens (human) MDA-MB-231 cells; type: functional
MDA-MB-231 [13] = test: Ratio of sunitinib IC50 to compound IC50 for Homo sapiens (human) MDA-MB-231 cells; type: functional

Row | Structure (SMILES) | IC50 (A549 [1]) | IC50 (K562 [2]) | IC50 (HUVEC [3]) | IC50 (HL-60 [4]) | IC50 (HUVEC [5]) | IC50 (MDA-MB-231 [6]) | IC50 (HUVEC [7]) | IC50 (IM-9) | Ratio IC50 (K562 [8]) | Ratio IC50 (A549 [9]) | Ratio IC50 (A549 [10]) | Ratio IC50 (HL-60 [11]) | Ratio IC50 (MDA-MB-231 [12]) | Ratio IC50 (MDA-MB-231 [13])
1 | CCOC(=O)c1c(C)[nH]c(/C=C2\C(=O)N(CCCN(C)C)c3ccc(F)cc32)c1C | 1.55 µM | 1.54 µM | 8.56 µM | 1.36 µM | 1.81 µM | 3.86 µM | 10.1 µM | 3.21 µM |  |  |  |  |  | 
2 | CN(C)CCCN1C(=O)C(=C(c2ccccc2)c2ccccc2)c2cc(F)ccc21 | 13.4 µM | 6.85 µM | 32.8 µM | 10.1 µM | 10.9 µM | 6.61 µM | 8.42 µM | 9.38 µM |  |  |  |  |  | 
3 | C/C(=C1/C(=O)N(CCCN(C)C)c2ccc(F)cc21)c1ccc[nH]1 | 8.27 µM | 6.41 µM | 13.9 µM | 7.99 µM | 8.83 µM | 5.92 µM | 9.71 µM | 6.68 µM |  |  |  |  |  | 
4 | CN(C)CCCN1C(=O)/C(=C(/c2ccccc2)c2ccc[nH]2)c2cc(F)ccc21 | 11.4 µM | 6.43 µM | 42.8 µM | 7.16 µM | 8.83 µM | 6.92 µM | 9.52 µM | 5.64 µM |  |  |  |  |  | 
5 | CC/C(=C1/C(=O)N(CCCN(C)C)c2ccc(F)cc21)c1ccc[nH]1 | 16.9 µM | 8.82 µM | 22.2 µM | 10.3 µM | 9.75 µM | 10.6 µM | 9.57 µM | 11 µM |  |  |  |  |  | 
6 | Cc1[nH]c(/C=C2\C(=O)N(CCCN(C)C)c3ccc(F)cc32)c(C)c1C(=O)N1CCOCC1 | 21.7 µM | 57 µM | 29.4 µM | 13.2 µM | 22 µM | 14.7 µM | 9.11 µM | 61.5 µM |  |  |  |  |  | 
7 | CCN(CC)CCNC(=O)c1c(C)[nH]c(/C=C2\C(=O)Nc3ccc(F)cc32)c1C [SUNITINIB] |  |  | 3.9 µM |  |  |  |  |  |  |  |  |  |  | 
8 | Cc1[nH]c(/C=C2\C(=O)N(CCCN(C)C)c3ccc(Cl)cc32)c(C)c1C(=O)N1CCOCC1 | 8.6 µM | 5.46 µM | 14.2 µM | 4.64 µM | 10.7 µM | 9.69 µM | 4.21 µM | 7.65 µM |  |  |  |  |  | 
9 | CCN(CC)CCNC(=O)c1c(C)[nH]c(/C=C2\C(=O)N(CCCN(C)C)c3ccc(Cl)cc32)c1C |  |  | 5.57 µM |  |  |  |  |  |  |  |  |  |  | 
10 | CCOC(=O)c1c(C)[nH]c(/C=C2\C(=O)N(CCCN(C)C)c3ccc(Cl)cc32)c1C.Cl | 1.1 µM | 1.36 µM | 22 µM | 1.17 µM | 10.2 µM | 1.47 µM | 9.66 µM | 2.95 µM | 1.8 | 1.6 | 1.8 | 1.8 | 1.6 | 1.8
